Laboratory results from patent publication US20260076939A1, “CHIRAL GAMMA LACTAM DERIVATIVE OR PHARMACEUTICALLY ACCEPTABLE SALT THEREOF, AND PREPARATION METHOD THEREFOR” (Korea University Research and Business Foundation, priority 2022, published 2026).
Structures can show the parent of a compound that is named as a salt.

Columns and labels:
HEK293T cell line = experiment: Intracellular Ca2+ concentration by confocal laser scanning microscopy (CLSM), Fluo-3-AM; type: cell-based, human; settings: HEK293T cells; for Ca2+ release performance: compared to the control rasagiline and the comparator (R)-phenylpiracetam, FIGS. 2 and 3
Description: To detect intracellular Ca^2+ levels, the HEK293T cell line, human renal epithelial cells, were seeded in 35 mm diameter confocal dishes 24 hours before the experiment and then were cultured to 40-60% confluency. The cells were loaded with […] fluorescent […] calcium indicator Fluo-3-acetoxymethyl (Fluo-3-AM; Invitrogen) for 30 min at 37° C. The concentration of Ca^2+ was determined using CLSM (Zeiss LSM 700 Meta; Zeiss, Oberkochen, Germany). […] The excitation and emission wavelengths for signal detection were 488 nm and 515 nm, respectively. Analysis of intracellular calcium intensity was performed using Zen software (Carl Zeiss).

GDF-8/Myostatin [1] = experiment: Human skeletal myoblast (HSKM) differentiation induction test, ELISA of culture supernatant: GDF-8/Myostatin; type: cell-based; settings: compared to IGF-1 and (R)-phenylpiracetam treatment groups, FIG. 4
Description: (§1) For the human skeletal myoblast (HSKM) differentiation induction test, human skeletal myoblasts (3×10^5 cells/well) were prepared in 24-well plates. Then, these cells were treated with the test substances and incubated in a 37° C., CO2 incubator for 48 hours. After 24 and 48 hours of incubation, the cell culture supernatant was collected into an E-tube and stored in a deep freezer. For ELISA analysis, the supernatant was thawed and prepared. ELISA analysis was performed based on the test method presented in the ELISA kit.

SMAD2 = experiment: Human skeletal myoblast (HSKM) differentiation induction test, ELISA: SMAD2; type: cell-based; settings: compared to (R)-phenylpiracetam treatment group, FIG. 5(a)
Description: as §1

SMAD3 = experiment: Human skeletal myoblast (HSKM) differentiation induction test, ELISA: SMAD3; type: cell-based; settings: compared to (R)-phenylpiracetam treatment group, FIG. 5(b)
Description: as §1

SYP (synaptophysin) = experiment: mRNA expression by real-time PCR in MPTP-treated SH-SY5Y cells: SYP; type: cell-based, human; settings: 2.5 mM MPTP, compared to MPTP alone, FIG. 6(a)
Description: (§2) After inducing an inflammatory response by treating a human neuroblastoma SH-SY5Y cell line with 2.5 mM MPTP (1-methyl-4-phenyl-1,2,3,6-tetrahydropyridine), the mRNA expression of SYP (synaptophysin), GAP-43 (Growth-associated protein-43), MAO-B (Monoamine oxidase-B), and iNOS (inducible nitric oxide synthase) was confirmed by real-time PCR.

[2] = test system: MAO-B (Monoamine oxidase-B); experiment: mRNA expression by real-time PCR in MPTP-treated SH-SY5Y cells: MAO-B; type: cell-based, human; settings: 2.5 mM MPTP, compared to MPTP alone, FIG. 6(a)
Description: as §2

[3] = test system: iNOS (inducible nitric oxide synthase); experiment: mRNA expression by real-time PCR in MPTP-treated SH-SY5Y cells: iNOS; type: cell-based, human; settings: 2.5 mM MPTP, compared to MPTP alone, FIG. 6(a)
Description: as §2

[4] = test system: human neuroblastoma SH-SY5Y cell line; experiment: Fluorescence microscopy of Ca2+ and superoxide anions in MPTP-treated SH-SY5Y cells; type: cell-based; settings: SH-SY5Y after the MPTP treatment; FIG. 6(b)
[5] = test system: Parkinson's disease mouse MPTP model; experiment: Open field test (OFT); type: in vivo, mice; settings: for total distance moved in the open field test: 10 mg/kg, compared to (R)-phenylpiracetam, MPTP alone and Selegiline treatment groups
Description: (§3) Six-month-old normal mice were acclimated for one week, trained for behavioral testing, and then randomly divided into groups. To construct a Parkinson's disease mouse MPTP model, mice were treated with the chiral gamma-lactam derivative of the present disclosure or a pharmaceutically acceptable salt thereof (dissolved in 0.9% saline, intraperitoneally injected (ip)) for 3 days, and then were treated with MPTP (dissolved in 0.9% saline, ip) for 5 consecutive days. […] For the control mice group, the same volume of saline solution (ip) was provided. Two days after the last injection, the efficacy was confirmed by an open field test (OFT), forced swim test (FST), rotarod test, and pilocarpine-induced seizure evaluation.
To measure general motor activity levels and behavioral anxiety of the mice, an open field test was performed. (1) First, 30 minutes before performing the open field test, the chiral gamma-lactam derivative of the present disclosure or a pharmaceutically acceptable salt thereof and a vehicle (saline, test drug) were injected intraperitoneally to the mice and their behavior was video recorded for 10 minutes. (2) Video analysis was used to check for sedation and measure the distance the mice moved.

[6] = test system: Parkinson's disease mouse MPTP model; experiment: Forced swim test (FST); type: in vivo; settings: MPTP mice, FIG. 8; for immobility time in the forced swim test: ip 30 minutes before the test, compared to the MPTP alone treatment group
Description: as §3
The forced swim test (FST) was performed to induce depressive behavior in mice. (1) First, a 2 L beaker was filled with water (25±1° C.) until the water was about 10 cm deep, and the mouse was allowed to swim. The mouse was returned to the breeding cage after 6 minutes. (2) The restraint stress group was confined in a restraint tube for 90 minutes until 60 minutes before the forced swim test was to be performed, and then the mouse was allowed to swim as mentioned in (1). Thereafter, the mouse was returned to the breeding cage. (3) In this case, the chiral gamma-lactam derivative of the present disclosure or a pharmaceutically acceptable salt thereof (saline, test drug) was injected into the abdominal cavity 30 minutes before the forced swim test was performed. Immobility time was measured for 4 minutes out of the 6 minutes and these measurements were compared between groups.

[7] = test system: Parkinson's disease mouse MPTP model; experiment: Rotarod test (latency to fall), 5 weeks; type: in vivo; settings: MPTP mice; for motility in the rotarod test (latency to fall): compared to the control group and the MPTP alone treatment group, FIG. 9(a)
Description: as §3
(§4) To evaluate the walking and motor abilities of the lower extremities of mice, a rotarod test was performed for 5 weeks. Motor coordination and balance were assessed by placing the mice on a rotating bar and measuring the time until they fell therefrom (latency to fall). MPTP was injected intraperitoneally into the mice at a concentration of 30 mg/kg for 5 consecutive days. One week after the MPTP was injected, MPTP was administered to the mice intraperitoneally (15 mg/kg) twice a week. The rotarod consists of a rotatable cylindrical rod with a diameter of 7 cm, located at a height of 60 cm and six baffles spaced at 15 cm intervals. Then, mice were placed on the rod while the rod was rotated for 180 seconds at a speed of 5 to 50 rpm (maximum speed) and the latency to fall was measured. At this time, the mice were sufficiently trained to be acclimated during the experimental period.

[8] = test system: tibialis anterior (TA) and extensor digitorum longus (EDL) muscle; experiment: Muscle weight after the five-week rotarod test; type: in vivo; settings: MPTP mice, after five weeks; for tibialis anterior (TA) muscle weight: FIG. 9(b); for extensor digitorum longus (EDL) muscle weight: FIG. 9(c)
Description: as §4

[9] = test system: pilocarpine-induced seizure mouse model; experiment: Evaluation of pilocarpine-induced seizures; type: in vivo; settings: male C57BL/6J mice, 15 mg ip 25 minutes before pilocarpine 330 mg/kg, monitored for 24 hours; compared to the control group; FIG. 10
Description: A pilocarpine-induced seizure mouse model was created to study changes in brain activity. Pilocarpine is an agonist that binds to muscarinic cholinergic receptors in nerve cells and increases cell activity, and is used to create a mesial temporal lobe epilepsy model.
The present experiment was performed on surgically operated-on male C57BL/6J mice under a constant environmental condition (24-25° C., 50-60% humidity, 12-hour light/dark cycle). […] Pilocarpine (Sigma, Deisenhofen, Germany) was injected intraperitoneally into the mouse at a single dose of 330 mg/kg, and behavioral and electrophysiological seizure patterns were monitored for 24 hours. […]
The seizure patterns were divided into the following five types, and cases (4) and (5) were defined as convulsive seizures and analyzed for their frequency and duration: (0) no convulsive behavior; (1) facial clonus; (2) head nodding; (3) forelimb clonus; (4) rearing: animal in a standing posture aided by tail and the laterally spread hindlimbs showing increased tone; (5) rearing and falling back.

GDF-8/Myostatin [10] = experiment: Expression of the sarcopenia-related marker GDF-8/Myostatin in mouse serum; type: in vivo; settings: MPTP mice, 15 mg/kg ip twice a week for 5 weeks, FIG. 11; for expression level of GDF-8/Myostatin in mouse serum: compared to IGF-1 and (R)-phenylpiracetam treatment groups
Description: MPTP was injected intraperitoneally into the mouse at a concentration of 30 mg/kg for 5 consecutive days. One week after the MPTP was injected, the chiral gamma-lactam derivative of the present disclosure or a pharmaceutically acceptable salt thereof (Ph-10, 20, 30) was administered intraperitoneally to the mouse at a concentration of 15 mg/kg twice a week, for 5 weeks, and the changes in the expression level of GDF-8/Myostatine, a sarcopenia-related marker in mouse serum, were determined.

[11] = test system: GAP-43 (Growth-associated protein-43); experiment: mRNA expression by real-time PCR in MPTP-treated SH-SY5Y cells: GAP-43; type: cell-based, human; settings: 2.5 mM MPTP, compared to MPTP alone, FIG. 6(a)
Description: as §2

## Cl.NC(=O)CN1C[C@@H](c2ccccc2)CC1=O [Ph-30, (R)-2-(2-oxo-4-phenylpyrrolidin-1-yl)acetamide hydrochloride]
HEK293T cell line
  calcium release performance difference, (R)-type Ph-30 compared to (S)-type Ph-20: ≥ 2 times
  Ca2+ release performance: far superior
HEK293T cell line; CLSM, FIG. 1 (Ph-30)
  time at which the intensity of intracellular calcium was highest: 18 s
GDF-8/Myostatin [1]
  GDF-8/Myostatin level: reduced GDF-8/Myostatin level the most
SMAD2
  SMAD2 level: lowered the SMAD2 and SMAD3 levels the most
SMAD3
  SMAD3 level: lowered the SMAD2 and SMAD3 levels the most
SYP (synaptophysin)
  mRNA expression of SYP: significantly increased
[2]
  mRNA expression of MAO-B: significantly reduced
[3]
  mRNA expression of iNOS: significantly reduced
[4]
  Ca2+ (fluorescence microscopy): significantly increased
  superoxide anions (fluorescence microscopy): significantly reduced
[5]; MPTP mice, ip, FIG. 7(b)
  total distance moved in the open field test: increased
  total distance moved relative to the MPTP alone treatment group: approximately three times higher
[5]; mice, ip, 5, 10 and 15 mg/kg, compared to the control group, FIG. 7(a)
  distance moved in the open field test: increased compared to the control group at all concentrations
[6]
  immobility time in the forced swim test: much shorter
  immobility time in the forced swim test compared to the untreated control group (saline): lower immobility time than the untreated control group
[7]; FIG. 9
  efficacy in the rotarod test compared to the Ph-20 compound: approximately twice the efficacy
[7]
  motility in the rotarod test (latency to fall): motility was increased
[8]
  tibialis anterior (TA) muscle weight: increased by statistically significant levels
  extensor digitorum longus (EDL) muscle weight: increased by statistically significant levels
[9]
  total number of convulsive seizures: significantly lower
GDF-8/Myostatin [10]
  expression level of GDF-8/Myostatin in mouse serum, comparison among the Ph compounds (chirality): lowest expression levels
  expression level of GDF-8/Myostatin in mouse serum: relatively lower

## NNC(=O)CN1C[C@@H](c2ccccc2)CC1=O [Ph-10, (R)-2-(2-oxo-4-phenylpyrrolidin-1-yl)acetohydrazide hydrochloride]
HEK293T cell line
  Ca2+ release performance: far superior
GDF-8/Myostatin [1]
  GDF-8/Myostatin level: performed equally or better
SMAD2
  SMAD2 level: effective performance
SMAD3
  SMAD3 level: effective performance
SYP (synaptophysin)
  mRNA expression of SYP: significantly increased
[11]
  mRNA expression of GAP-43: significantly increased
[2]
  mRNA expression of MAO-B: significantly reduced
[3]
  mRNA expression of iNOS: significantly reduced
[5]; MPTP mice, ip, FIG. 7(b)
  total distance moved in the open field test: increased
[6]
  immobility time in the forced swim test: much shorter
[7]
  motility in the rotarod test (latency to fall): motility was increased
[8]
  tibialis anterior (TA) muscle weight: increased by statistically significant levels
  extensor digitorum longus (EDL) muscle weight: increased by statistically significant levels
GDF-8/Myostatin [10]
  expression level of GDF-8/Myostatin in mouse serum: relatively lower

## NC(=O)CN1C[C@@H](c2ccccc2)CC1=O [phenylpiracetam, (R)-phenylpiracetam, reference compound]
[6]
  immobility time in the forced swim test: reduced immobility time

## Cl.NC(=O)CN1C[C@H](c2ccccc2)CC1=O [Ph-20, (S)-2-(2-oxo-4-phenylpyrrolidin-1-yl)acetamide hydrochloride]
HEK293T cell line
  Ca2+ release performance: far superior
GDF-8/Myostatin [1]
  GDF-8/Myostatin level: performed equally or better
SMAD2
  SMAD2 level: effective performance
SMAD3
  SMAD3 level: effective performance
SYP (synaptophysin)
  mRNA expression of SYP: significantly increased
[5]; MPTP mice, ip, FIG. 7(b)
  total distance moved in the open field test: increased
[6]
  immobility time in the forced swim test: much shorter
[7]
  motility in the rotarod test (latency to fall): motility was increased
[8]
  tibialis anterior (TA) muscle weight: increased by statistically significant levels
  extensor digitorum longus (EDL) muscle weight: increased by statistically significant levels
[9]
  total number of convulsive seizures: effectively reduced
GDF-8/Myostatin [10]
  expression level of GDF-8/Myostatin in mouse serum: relatively lower
